From US20220142967A1, “Methods and Compositions for the Treatment of Multiple Sclerosis” (SYMBIONYX PHARMACEUTICALS INC, priority 2018, published 2022)
Structures can show the parent of a compound that is named as a salt.

Experiments:
MS = MS patients, oral therapy; cited from earlier work
[1] = test system: patients with Relapsing-Remitting Multiple Sclerosis; details: cited from earlier work
[2] = test system: human fetal astrocytes derived from cerebral cortex; test: Transcriptome analysis of astrocyte cultures treated with MMF, DRF, IDMF; type: cell-based; details: 2.5 μM, 24 hours
Procedure: (§1) Experiments were performed using human fetal astrocytes derived from cerebral cortex (cat. no. 882A-05f; Cell Applications, Sant Diego, Calif.). Cells were grown to subconfluence in human astrocyte growth medium (cat. no. 820-500, Cell Applications). […] Test materials were added to subconfluent cultures at a concentration of 2.5 μM and cells were incubated for 24 hours.
(§2) RNA was extracted following the incubation period using the RNAeasy Mini Plus kit (Qiagen, Hilden, Germany) and robotic Qiacube Connect station (Qiagen). Samples were shipped on dry ice to the Thermo Fisher Microarray Research Services Laboratory (Santa Clara, Calif.) for transcriptome analysis. RNA quality analysis was performed upon sample receipt using the NanoDrop Lite (Thermo Fisher Scientific, Waltham, Mass.). All samples had 260/280 nm absorbance ratios higher than 1.90, consistent with high-purity RNA.
In follow-up to the study of Example, 1 above, genes associated with multiple sclerosis were identified based upon seven established database sources: (1) the NHGRI-EBI genome-wide association (GWA) study catalogue, (2) the Disease Ontology (DO) database, (3) the DisGeNET (curated) database, (4) the DisGeNET (BeFree), (5) MalaCards, (6) the Medical Subject Heading (MESH) database and the KEGG Database. The impact on gene expression of IDMF, MMF and DRF on the key overlapping MS-associated genes was assessed.
The specific data for four of the key NFR2 target genes associated with antioxidant and anti-inflammatory effects is presented in FIGS. 7(A) thru 7(D).
Both TNFAIP3 and NFKBIA encode inhibitory proteins that suppress the NF-KB pathway. Specifically, TNFAIP3 encodes a deubiquitinating enzyme previously linked to MS by genetic association studies: a TNFAIP3 protein abundance is increased in white matter and cortical lesion astrocytes from MS patient brains. Similarly, NFKBIA (IκBα) encodes an NF-KB inhibitor for which promoter polymorphisms have been associated with MS and abundance of this protein is prominent in macrophage nuclei of MS plaques undergoing active demyelination. ICAM1 encodes an endothelial adhesion molecule that promotes leucocyte extravasation and is associated with the initiation and progression of inflammation as well as the targeting of inflammation in the central nervous system (CNS). FIGS. 9(A), 9(B) and 9(C) show the specific data for these three genes.
Genetic variants of IFR has been associated with MS and some MS treatments such as glatiramer acetate block cytokine-stimulated IRF1 up-regulation. An assessment was undertaken to assess the relative impact of fumarate esters, namely MMF, DRF and IDMF on IFR motif enrichment.

[3] = test system: human fetal astrocytes derived from cerebral cortex; test: Comparative RT-PCR evaluation of selected genes in astrocytes; type: cell-based
Procedure: as §1, §2
The expression of selected genes was further evaluated using RT-PCR. cDNA was prepared using the AzuraQuant cDNA kit (Azura Genomics, Raynham, Mass.) and PCR reactions were performed using the BioRad iCycler iQ Detection System with Fast Green qPCR Master Mix—Fluor (Azura Genomics). PCR primers were purchased from Realtimeprimers (Elkins Park, Pa.). The ΔΔCt method [Livak K. J. and Schmittgen T. D. Analysis of relative gene expression data using real-time quantitative PCR and the 2(−Delta Delta C(T)) Method. Methods (San Diego, Calif.) 25(4):402-408, 2001]. was used to estimate fold changes with cycle threshold values normalized based upon the expression of glyceraldehyde-3-phosphate dehydrogenase (GAPDH).

[4] = biological target: T1, carboxylesterase 2 (CES2) (Homo sapiens, UniProt O00748); test: Carboxylesterase hydrolysis IDMF v DRF; type: in vitro ADME; details: 20 μl of 1 mg/ml CES2, 37° C., pH 7.4
T1 sequence (O00748 27-559): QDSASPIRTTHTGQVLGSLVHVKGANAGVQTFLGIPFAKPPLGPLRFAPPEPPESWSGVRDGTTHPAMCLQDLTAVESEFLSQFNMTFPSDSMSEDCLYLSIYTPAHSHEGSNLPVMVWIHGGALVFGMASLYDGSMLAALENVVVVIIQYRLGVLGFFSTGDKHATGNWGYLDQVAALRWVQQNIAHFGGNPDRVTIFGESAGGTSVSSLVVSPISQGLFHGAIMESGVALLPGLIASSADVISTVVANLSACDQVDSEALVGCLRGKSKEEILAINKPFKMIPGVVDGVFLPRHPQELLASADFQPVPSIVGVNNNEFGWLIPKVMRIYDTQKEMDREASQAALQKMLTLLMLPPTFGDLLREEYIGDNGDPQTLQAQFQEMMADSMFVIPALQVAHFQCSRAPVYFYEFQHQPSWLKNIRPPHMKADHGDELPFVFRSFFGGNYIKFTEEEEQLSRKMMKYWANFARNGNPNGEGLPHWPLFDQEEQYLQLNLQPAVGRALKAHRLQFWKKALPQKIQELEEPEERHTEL
Procedure: 20 μl of 1 mg/ml carboxylesterase 2 (CES2) was added to each solution and the solutions incubated at 37° C. for the time periods set forth in Table 5. […] Although tolerable for normal patients, HES is undesirable and detrimental for those individuals have kidney and/or liver issues

[5] = in vivo; cited from earlier work
cultured astrocytes = test: RNA-seq of cultured astrocytes compared with MS patient white matter astrocytes (GSE83670); type: cell-based, human; details: cultured astrocytes vs. LCM-dissected MS patient astrocytes
Procedure: Previously, Waller et al. 2016 (J Neuroimmunol 299:139-146) used laser capture microdissection (LCM) to isolate astrocytes from normal appearing white matter in MS patients and CTL subjects (GEO dataset GSE83670; PMID: 27125112).
cDNA sequencing was performed by the University of Michigan sequencing core facility (50 cycle single end Illumina HiSeq 2000). The FASTX-Toolkit was used to filter reads by removing low quality sequences and initial quality assessments were performed using FastQC. Quality-filtered reads were mapped to the human genome (hg38/GRCh38, UCSC) using tophat2 with default settings, except multi-mapping of reads to multiple genome locations was disallowed (settings: -g 1 —no-coverage-search). The hg38/GRCh38 genome is the most recent release available from UCSC. HTSeq was used to tabulate the number of reads mapping to each genome feature and Cufflinks was used to calculate FPKM estimates and associated confidence intervals. RSeQC was used to assess quality of mapping and calculate the percentage of mapped reads. The negative binomial model (edgeR) was used to evaluate differential expression, with read counts normalized using the weighted trimmed mean of M-values method, and dispersions estimated using the Cox-Reid (CR)-adjusted likelihood approach. Differential expression analyses were performed using genes with detectable expression in at least 1 of 4 samples involved in a given comparison. A gene was considered to have detectable expression in a sample if the count per million mapped reads (cpm) estimate was greater than 0.20 and if the lower bound of the FPKM 95% confidence interval was greater than zero.
FIG. 3 presents in scatterplot and histogram format the results of the study on the astrocytes. Scatterplots (A) and (D) compare fold change (FC) estimates in DMF-treated (A) and IDMF-treated (D) astrocytes to LCM-dissected astrocytes in MS patients and healthy controls (CTLs). Each point represents a protein-coding gene and the light colored ellipses outline the 90% of genes closest to the bivariate mean based upon the Mahalanobis distance. The Spearman rank correlation coefficient estimate is shown (upper-left). The proportion of genes within each quadrant is indicated in the upper margin (P<0.05, Fisher's exact test), wherein the quadrants are defined by a vertical and horizontal line through the “1” in each axis with the proportion corresponding, left to right to the upper left, the upper right, the lower right and lower left quadrants, respectively. Gene set overlap is presented in (B), (C), (E) and (F) wherein genes within each set were altered with a P<0.05 threshold. P-values from the test of overlap significance are shown (bottom margin, Fisher's exact test). […]

[6] = test system: patients with relapsing remitting MS (RRMS); details: cited from earlier work
[7] = biological target: T1, carboxylesterase 2 (CES2); test: Carboxylesterase hydrolysis IDMF v DMF; type: in vitro ADME; details: for remaining parent compound: 1 mg/ml CES2, 37° C., pH 7.4
Procedure: IDMF and DMF were subjected to carboxylesterase hydrolysis. […] 1 mg/ml carboxylesterase 2 (CES2) was added to each solution and the solutions incubated at 37° C. for the time periods set forth in Table 5. […] Isosorbide was quantified using CAD. Mobile phase used for the study: 0.1% Formic acid in water; B: Methanol. Column: Luna C18 4.6 mm×100 mm, 5 u (Phenomenex). Flow rate: 1.0 ml/min.

human fetal astrocytes = test: A1 v A2 marker activation, RNA-seq of H2O2-stimulated astrocytes; type: cell-based; details: 2.5 μM, 24 hrs, H2O2 (50 μM) stimulated
Procedure: The treated cells were stimulated with H2O2 (50 μM) for 20 min and the RNA extracted 1 day later and sequenced using the Illumina HiSeq 2000 with an average of 39.3 million reads per sample. Reads were mapped to the GHch38/hg38 genome. 13,968 protein-coding genes had detectable expression on average among the 6 samples. Differentially expressed genes (DEGs) were identified using negative binomial models with FDR threshold of <0.10 and fold change (FC) criteria (FC>1.30 or FC<0.77). Gene set enrichment testing was performed using public database annotations. Motif enrichment with respect to DEG up-stream regions was characterized using semiparametric generalized additive logistics models. The overlap between the identified DEGs and MS-associated genes, i.e., genes from MS patients and genes linked to inflammatory (A1) and ischemic (A2) astrogliosis.

[8] = DRF 462 mg BID, 96-week study (EVOLVE-MS-1)
[9] = DEFINE and CONFIRM phase III trials

C/C(O)=C(\C#N)C(=O)Nc1ccc(C(F)(F)F)cc1 [Teriflunomide]
Side effects (MS): Gl, hair thinning,

CCCCCCCCc1ccc(CCC(N)(CO)CO)cc1 [Fingolimod]
Side effects (MS): First dose

COC(=O)/C=C/C(=O)OCCN1C(=O)CCC1=O [DRF, diroximel fumarate]
reduction of number of days with at least moderate GI symptoms ([1]; 5-week study, DRF 462 mg BID as compared to DMF 240 mg BID): 46% | discontinuation due to adverse GI effects, patients [1, 8]: 6.3% | patients who developed adverse GI effects [1, 8]: 30.9% | effect on TNFAIP3, NFKBIA and ICAM1 expression [2]: effectively no effect | OSGIN1 expression ([3]; FIG. 11(B)): suppression | expression of key MS-associated genes (IL-6, ICAM1, MALT1, TNFAIP3, IRF1, CXCL8) ([3]; FIGS. 11(C) through 11(H)): negligible effect | remaining parent compound ([4]; 0 minutes): 1 mM | remaining parent compound ([4]; 15 minutes): .652 mM | remaining parent compound ([4]; 30 minutes): 0.482 mM | remaining parent compound ([4]; 60 minutes): 0.273 mM | remaining parent compound ([4]; 120 minutes): 0.08 mM | RDC-8439 and methanol generated as minor products [5]: < 10% | fraction metabolized to HES and MMF [5]: > 90%

COC(=O)/C=C/C(=O)OC [DMF, Dimethyl fumarate]
correlation of genome-wide expression responses with those observed in MS patients (Spearman r) (cultured astrocytes): 0.23 | flushing, most reported adverse effect [6, 9]: 24-38% | specific gastrointestinal (GI) adverse effects (nausea, vomiting, diarrhea, upper abdominal pain), patients [6, 9]: 7 to 19% | patients who experienced adverse GI effects ([6]; after 1 year, in these trials): 36% | discontinuation of DMF due to GI side effects, patients ([6]; real-world settings): 5-19% | remaining parent compound ([7]; 0 minutes): 1 mM | remaining parent compound ([7]; 30 minutes): 0.166 mM | remaining parent compound ([7]; 60 minutes): 0.08 mM | remaining parent compound ([7]; 120 minutes): 0.014 mM | time by which essentially all is hydrolyzed ([7]; CES2, 37° C.): ≤ 60 min | fraction not hydrolyzed to MMF ([7]; within thirty minutes): about 17% | Disability reduction, % (MS): 38% | Gadolinium enhancement reduction, % (MS): 74-90% | Relapse rate reduction vs. placebo, % (MS): 44-53% | Side effects (MS): Flushing, | T2w lesion reduction, % (MS): 71-85% | ICAM1 expression (human fetal astrocytes): no similar activity | expression of genes linked to A1-polarization (human fetal astrocytes): tended to increase expression | expression of genes linked to A2-polarization (human fetal astrocytes): decreased expression
